Source: PubChem BioAssay (NCI)
Where “and” joins values, the source holds several entries; their conditions need not be identical. Identical values can stand only once.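 Exposure lasted 48 hours, with cells grown in 96-well plates and compounds tested at five concentrations. At the GI50, growth is halved. TGI: concentration producing complete growth inhibition.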

Columns and labels:
Assay in all cases: NCI-60 cell line screen, 48 h
[1] = system: COLO 205 colon
[2] = system: SNB-19 CNS
[3] = system: M14 melanoma
[4] = system: HOP-92 NSCLC
[5] = system: TK-10 renal
[6] = system: OVCAR-4 ovarian
[7] = system: NCI-H23 lung
[8] = system: HL-60(TB) leukemia
[9] = system: UACC-257 melanoma
[10] = system: OVCAR-5 ovarian

Row | Compound | GI50 [1] [µM] | TGI [1] | GI50 [2] | TGI [2] | GI50 [3] [µM] | TGI [3] | GI50 [4] | TGI [4] | GI50 [5] | TGI [5] | GI50 [6] [µM] | TGI [6] | GI50 [7] | TGI [7] | GI50 [8] | TGI [8] | GI50 [9] | TGI [9] | GI50 [10] | TGI [10]
1 | COc1ccc(/C(C)=C(\c2ccc(OCCN3CCCCCC3)cc2)c2ccc(OC(=O)C3CCCCC3)cc2)cc1 | 0.626 | 4.06 µM | 2.45 µM | 10.5 µM | 0.416 | 1.3 µM | 0.813 µM | 2.76 µM | 1.84 µM | 4.25 µM | 0.785 | 3.35 µM | 1.29 µM | 4.32 µM | 0.707 µM | 2.85 µM | 0.575 µM | 2.07 µM | 1.41 µM | 3.44 µM
2 | CC1(C)CN=C(NN=C(/C=C/c2ccc(C(F)(F)F)cc2)/C=C/c2ccc(C(F)(F)F)cc2)NC1 | 1.35 | 2.85 µM | 1.5 µM | 3.18 µM | 1.78 | 3.5 µM | 1.1 µM | 2.54 µM | 1.91 µM | 3.37 µM | 1.29 | 2.72 µM | 1.56 µM | 3.23 µM | 2.03 µM | 4.35 µM | 1.56 µM | 2.96 µM | 1.32 µM | 2.68 µM
3 | OC(c1cc(-c2ccc(C(F)(F)F)cc2)nc(C(F)(F)F)c1)C1CCCCN1 (stereo not given) |  | 3.42 µM and 3.15 µM | 1.53 µM and 5.66 µM | 2.92 µM and 13.5 µM |  | 3.12 µM and 3.14 µM | 1.06 µM and 2.38 µM | 2.47 µM and 9.39 µM | 1.72 µM and 2.16 µM | 3.23 µM and 4.95 µM |  | 5.6 µM | 1.68 µM and 2.39 µM | 3.15 µM and 6.12 µM | 1.43 µM | 3.67 µM and 4.11 µM |  | 3.59 µM and 3.69 µM | 1.53 µM and 2.71 µM | 2.87 µM and 7.52 µM
4 | CO[C@H]1Nc2c(ccc(C)c2O)C(=O)N2C=C(/C=C/C(N)=O)C[C@@H]12 |  | 0.1 µM |  | > 58.2 µM |  | 0.0406 µM |  | 0.217 µM |  | 7.95 µM |  | 0.686 µM |  | 0.354 µM |  | 0.456 µM |  | 0.134 µM |  | 5.45 µM
5 | O=C(Cc1nc2c3c(ccc2[nH]c1=O)C(=O)c1ccccc1C3=O)C(=O)Nc1ccccc1[N+](=O)[O-] |  | 33.5 µM |  | 32.9 µM |  | 34 µM |  | 38.5 µM |  | 44.8 µM |  | 32.4 µM |  | 35.4 µM |  | 43.7 µM |  | 37 µM |  | 41.1 µM
6 | Cc1cc2c(c(C(N)=O)c1C)-c1ccccc1C2=O |  | > 100 µM |  | > 100 µM |  | > 100 µM |  | > 100 µM |  | > 100 µM |  | > 100 µM |  | > 100 µM |  | > 100 µM |  | > 100 µM |  | > 100 µM
7 | CC(C)c1[nH]nc2c1N=C(c1ccccc1Cl)c1cc([N+](=O)[O-])ccc1N2 | 10.3 | > 25 µM | 11.8 µM | > 25 µM | 7.63 | > 25 µM | 4 µM | 12.6 µM | 7.31 µM | > 23.1 µM | 8.06 | > 24.2 µM | 7.24 µM | > 25 µM | 4.99 µM | 12.2 µM | 10.1 µM | > 25 µM | 12.2 µM | > 25 µM
8 | CC(C)=C1CCC(CN(C)C)C1=O (stereo not given) |  | 63.4 µM |  | > 100 µM |  | 28.4 µM |  | 40.6 µM |  | 31 µM |  | 28.4 µM |  | > 100 µM |  | 15.6 µM |  | 31.6 µM |  | > 100 µM
9 | CC(C)(C)[Si](C)(C)OC1[C@@H](CNC(=O)NC(=O)CCl)O[C@@H](n2cnc3c(N)ncnc32)[C@H]1O[Si](C)(C)C(C)(C)C (stereo not given in full) | 1.45 | 3.55 µM | 2.43 µM | 9.46 µM | 1.07 | 2.49 µM | 0.885 µM | 1.86 µM | 1.39 µM | 3.63 µM | 0.924 | 2.51 µM | 0.955 µM | 2.08 µM | 0.893 µM | 1.87 µM | 2.65 µM | 6.93 µM | 0.818 µM | 1.62 µM
10 | COC(=O)/C(=N/O)C(C(=O)C=C(C)C)C(=O)C(=O)Nc1nc2ccc([N+](=O)[O-])cc2s1 (stereo not given) |  | > 100 µM |  | > 100 µM |  | > 100 µM |  | 42.8 µM |  | 95.8 µM |  | > 100 µM |  | 83.2 µM |  | > 100 µM |  | > 100 µM |  | > 100 µM
11 | O=C1NCCS(=O)(=O)N[C@@H](CC2=CC=CCC2)C(=O)N2CCCC12 (stereo not given in full) |  | > 100 µM |  | > 100 µM |  | > 100 µM |  | > 100 µM |  | > 100 µM |  | > 100 µM |  | > 100 µM |  | > 100 µM |  | > 100 µM |  | > 100 µM
12 | CN(C)C(=S)SSC(=S)N(C)C |  | 29.3 µM | 25.4 µM | > 100 µM | 14.4 | 30 µM and > 61.7 µM and > 51.3 µM | 17.3 µM and 59.5 µM and 18.4 µM | 42.8 µM and > 100 µM and 36.7 µM | 16.1 µM and > 100 µM and 26.4 µM | 30.6 µM and > 100 µM and > 70.6 µM |  | 20.8 µM and 8.96 µM and 39.1 µM | 21.5 µM and 4.49 µM and 21 µM | 64.9 µM and 14.3 µM and 43.7 µM |  | 70.6 µM and 9.41 µM and 10.8 µM | 15 µM and 4.06 µM and 28.4 µM | 30.5 µM and 39.9 µM and > 55.7 µM | 14.9 µM and > 58.4 µM and 16.6 µM | 28.2 µM and > 72.6 µM and 33.5 µM
13 | CC(C)CC(C/C=C1/CC(CO)(COC(=O)C(C)(C)C)OC1=O)CC(C)C (stereo not given) |  | 0.958 µM |  | 23.4 µM and 18.5 µM |  | 28 µM and 26.2 µM |  | 18.8 µM | 1.58 µM and 0.543 µM | 15.7 µM and 1.97 µM |  | 34.9 µM and 30.6 µM |  | 23.4 µM and 24.4 µM | 0.154 µM and 0.46 µM | 16.9 µM and 16.7 µM |  | 31.3 µM and 31 µM |  | 24.5 µM
14 | COc1ccc(-c2nccn2-c2ccc(OC)cc2)cc1 | 28.3 | > 100 µM | 41.8 µM | > 100 µM | 20.5 | 56.7 µM | 2.45 µM | > 41.7 µM | 23 µM | > 75.9 µM | 30.2 | > 100 µM | 22.2 µM | 58.9 µM | 14.2 µM | 34.2 µM | 26 µM | > 88 µM | 25 µM | > 100 µM
15 | CCCC/C(=C\C1=C(C)C(=O)C(OC)=C(OC)C1=O)C(=O)O | > 100 | > 100 µM | > 100 µM | > 100 µM | > 100 | > 100 µM | 23.5 µM | 86.7 µM | > 100 µM | > 100 µM | 31.6 | > 100 µM | > 100 µM | > 100 µM | 66.3 µM | > 100 µM | > 100 µM | > 100 µM | > 100 µM | > 100 µM
16 | Nc1nc(-c2ccc(Cl)c([N+](=O)[O-])c2)cs1 |  | > 100 µM |  | > 100 µM |  | > 100 µM |  | 74.6 µM |  | > 100 µM |  | > 100 µM |  | > 100 µM |  | > 100 µM |  | > 100 µM |  | > 100 µM
